According to US20240174618A1, “SUBSTITUTED (2-HETEROARYLOXYPHENYL)SULFONATES, SALTS THEREOF AND THEIR USE AS HERBICIDAL AGENTS” (Bayer Aktiengesellschaft, priority 2021, published 2024):

What was measured:
Type in all cases: in vivo
[1] = system: Amaranthus retroflexus (AMARE); experiment: C. Herbicidal pre-emergence efficacy, AMARE; conditions: scored after about 3 weeks
How it was run: (§1)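 Pre-emergence test: formulated compounds sprayed as aqueous suspension or emulsion with 0.5% additive at 600 l/ha onto soil covering sown seeds, at rates corresponding to 320 g/ha or less. After about 3 weeks in greenhouse, efficacy scored visually as percent versus untreated controls (100% = plants dead).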

[2] = system: Abutilon theophrasti (ABUTH); experiment: A. Herbicidal pre-emergence efficacy, ABUTH; conditions: scored visually after about 3 weeks vs untreated controls
How it was run: (§2)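 Applied before emergence onto covering soil at rates of 1280 g/ha or less, using 600 L/ha spray water with 0.5% additive. Scoring: visual % efficacy after ~3 weeks, greenhouse.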

[3] = system: Poa annua (POAAN); experiment: B. Herbicidal post-emergence efficacy, POAAN
How it was run: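 Weeds grown in sandy loam in greenhouse pots, sprayed at one-leaf stage (2–3 weeks after sowing) with WP or EC formulations as aqueous suspension/emulsion plus 0.5% additive at 600 L/ha water, rates up to 1280 g/ha. Visual efficacy rated about 3 weeks later versus untreated controls (0% = like control, 100% = dead).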

[4] = system: Viola tricolor (VIOTR); experiment: C. Herbicidal pre-emergence efficacy, VIOTR
How it was run: as §1

[5] = system: Kochia scoparia (KCHSC); experiment: A. Herbicidal pre-emergence efficacy, KCHSC
How it was run: as §2

[6] = system: Lolium rigidum (LOLRI); experiment: C. Herbicidal pre-emergence efficacy, LOLRI; conditions: scored after about 3 weeks
Text: Seeds of monocotyledonous and dicotyledonous weed plants and crop plants were placed in plastic or organic planting pots and covered with soil. The compounds of the invention, formulated in the form of wettable powders (WP) or as emulsion concentrates (EC), were then applied to the surface of the covering soil as aqueous suspension or emulsion with addition of 0.5% additive at a water application rate equivalent to 600 l/ha (converted). After the treatment, the pots were placed in a greenhouse and kept under good growth conditions for the test plants. After about 3 weeks, the efficacy of the preparations was scored visually in comparison with untreated controls as percentages. For example, • 100% efficacy=plants have died, • 0% efficacy=like untreated control plants.
Tables C1a to C14b below show the effects of selected compounds of the general formula (I) according to table 1 on various harmful plants at an application rate corresponding to 320 g/ha or less, which were obtained by the experimental procedure mentioned above.

[7] = system: Amaranthus retroflexus (AMARE); experiment: A. Herbicidal pre-emergence efficacy, AMARE
How it was run: as §2

[8] = system: Veronica persica (VERPE); experiment: C. Herbicidal pre-emergence efficacy, VERPE; conditions: scored after about 3 weeks
How it was run: as §1

[9] = 80 g/ha, scored visually after about 3 weeks vs untreated controls
[10] = pre-emergence, dosage 1280 g/ha

Row | Structure (SMILES) | Pre-emergence efficacy against AMARE ([1]; 80 g/ha) [%] | Pre-emergence efficacy against AMARE ([1]; 320 g/ha) [%] | Pre-emergence efficacy against ABUTH ([2]; 80 g/ha) [%] | Pre-emergence efficacy against ABUTH ([2]; 320 g/ha) [%] | Pre-emergence efficacy against ABUTH ([2]; 1280 g/ha) [%] | Post-emergence efficacy against POAAN ([3]; 80 g/ha) [%] | Post-emergence efficacy against POAAN ([3]; 320 g/ha) [%] | Post-emergence efficacy against POAAN ([3]; 1280 g/ha) [%] | Pre-emergence efficacy against VIOTR in % ([4]; application rate 80 g/ha) [%] | Pre-emergence efficacy against VIOTR in % ([4]; application rate 320 g/ha) [%] | Pre-emergence efficacy against KCHSC [5, 9] [%] | Pre-emergence efficacy against KCHSC ([5]; pre-emergence, dosage 320 g/ha) [%] | Pre-emergence efficacy against KCHSC [5, 10] [%] | Pre-emergence efficacy against LOLRI ([6]; 80 g/ha) [%] | Pre-emergence efficacy against LOLRI ([6]; 320 g/ha) [%] | Pre-emergence efficacy against AMARE in % ([7]; 80 g/ha) [%] | Pre-emergence efficacy against AMARE in % ([7]; 320 g/ha) [%] | Pre-emergence efficacy against AMARE in % ([7]; 1280 g/ha) [%] | Pre-emergence efficacy against VERPE ([8]; 80 g/ha) [%] | Pre-emergence efficacy against VERPE ([8]; 320 g/ha) [%]
1 | O=S(=O)(CCC(F)(F)F)Oc1c(F)cccc1Oc1ncc(Cl)cn1 [Example I-48] | 100 | 100 | 90 | 100 | 100 | 90 | 90 | 90 | 100 | 100 | 100 | 100 | 100 | 90 | 100 | 90 | 90 | 100 |  | 
2 | O=S(=O)(CCCC(F)(F)F)Oc1c(F)cccc1Oc1ncc(Cl)cn1 [Example I-49] | 100 | 100 | 100 | 100 | 100 |  |  | 90 | 100 | 100 | 100 | 100 | 100 | 80 | 90 | 90 | 100 | 100 |  | 
3 | C=CCCS(=O)(=O)Oc1c(F)cccc1Oc1ncc(Cl)cn1 [Example I-50] | 100 | 100 | 90 | 100 | 100 | 90 | 90 | 90 |  | 90 | 90 | 100 | 100 |  | 100 | 90 | 90 | 100 |  | 
4 | COCCS(=O)(=O)Oc1c(F)cccc1Oc1ncc(Cl)cn1 [Example I-52] | 100 | 100 |  | 100 | 100 |  | 90 | 90 | 100 | 100 |  | 90 | 100 |  | 90 | 90 | 100 | 100 |  | 
5 | O=S(=O)(CCCC(F)F)Oc1c(F)cccc1Oc1ncc(Cl)cn1 [Example I-56] | 100 | 100 | 100 | 100 | 100 | 90 | 90 | 90 | 100 | 100 | 100 | 100 | 100 | 100 | 100 | 100 | 100 | 100 |  | 
6 | O=S(=O)(CCC(F)=C(F)F)Oc1c(F)cccc1Oc1ncc(Cl)cn1 [Example I-70] | 100 | 100 |  |  |  |  |  |  | 100 | 100 |  |  |  |  | 100 |  |  |  | 80 | 100
7 | N#Cc1cccc(Oc2ncc(Cl)cn2)c1OS(=O)(=O)CCCC(F)(F)F [Example I-81] | 100 | 100 |  |  |  |  |  |  | 100 | 100 |  |  |  |  | 90 |  |  |  | 100 | 100
